Test results as given in patent US9029384B2, “Phosphatidylinositol 3-kinase inhibitors” (Gilead Calistoga LLC, priority 2012, dated 2015).
Like-named read-outs stand apart in the source and are kept apart here.

Legend:
[1] = Hepatocyte stability, 1% final DMSO, 2 μM substrate (t1/2^a); assay type: in vitro ADME; conditions: human, cryopreserved hepatocytes, TA with 1% final DMSO, 2 μM substrate, samples at 0, 1, 2, 4 hours; read-out: human hepatocyte t½^a
Procedure: This assay was used to evaluate the metabolic stability of test articles (TA) following incubation in cryopreserved hepatocytes by monitoring parent drug disappearance via […]. The TA with 1% final DMSO concentration was incubated with 1 million hepatocytes/ml at 2 μM substrate in duplicate. The incubation was carried out at 37° C. with 5% CO2 and saturating humidity.

PI3Kδ = target: T1, PI3Kδ (Homo sapiens, UniProt O00329); assay: Enzymatic activity of PI3K isoforms, TR-FRET assay (PIP3 formation); assay type: biochemical
T1 construct: made in house
Procedure, shortened: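 Recombinant heterodimeric class I PI3K; PIP3 product measured by TR-FRET competition with labelled PIP3 for Eu-GRP-1 PH domain. Reaction 30 min at 25 °C, stopped with 10 mM EDTA.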

basophils = assay: Basophil activation in human whole blood (Flow2 CAST kit, CD63 positive cells); assay type: cell-based
Procedure, shortened: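 Human whole blood (K2-EDTA) preincubated 60 minutes at 37° C with compound serial dilutions or DMSO (0.3% final), then stimulated with anti-FcεRI mAb or fMLP and stained for CD63/CCR3. Percent CD63+ among ≥200 CCR3-high basophils by flow cytometry, normalized to stimulated vehicle as 100%. EC50 from four-parameter fits, geometric means in nM, concentrations corrected for reagent dilution.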

[2] = Hepatocyte stability, 0.01% final DMSO, 1 μM substrate (t1/2^b); assay type: in vitro ADME; conditions: human, hepatocytes, TA with 0.01% final DMSO
Procedure: Alternatively, assay reagents and/or conditions can be modified in determining the inhibitory activities to PI3K isomers. In additional studies, similar assay using TA and 0.01% final DMSO concentration were incubated with 1 million hepatocytes/mL at 1 μM substrate in duplicate. The incubation was carried out at 37° C. with 5% CO2 and saturating humidity.

[3] = PI3Kδ, TR-FRET, 2×Km ATP, 10 μM PIP2, read-out: IC50
[4] = Homo sapiens, basophils activated with anti-FcεRI mAb or fMLP, geometric mean
[5] = 1 μM substrate, samples at 0, 1, 3, 6 hours, read-out: human hepatocyte t½^b

T1 sequence (O00329 whole entry, canonical isoform): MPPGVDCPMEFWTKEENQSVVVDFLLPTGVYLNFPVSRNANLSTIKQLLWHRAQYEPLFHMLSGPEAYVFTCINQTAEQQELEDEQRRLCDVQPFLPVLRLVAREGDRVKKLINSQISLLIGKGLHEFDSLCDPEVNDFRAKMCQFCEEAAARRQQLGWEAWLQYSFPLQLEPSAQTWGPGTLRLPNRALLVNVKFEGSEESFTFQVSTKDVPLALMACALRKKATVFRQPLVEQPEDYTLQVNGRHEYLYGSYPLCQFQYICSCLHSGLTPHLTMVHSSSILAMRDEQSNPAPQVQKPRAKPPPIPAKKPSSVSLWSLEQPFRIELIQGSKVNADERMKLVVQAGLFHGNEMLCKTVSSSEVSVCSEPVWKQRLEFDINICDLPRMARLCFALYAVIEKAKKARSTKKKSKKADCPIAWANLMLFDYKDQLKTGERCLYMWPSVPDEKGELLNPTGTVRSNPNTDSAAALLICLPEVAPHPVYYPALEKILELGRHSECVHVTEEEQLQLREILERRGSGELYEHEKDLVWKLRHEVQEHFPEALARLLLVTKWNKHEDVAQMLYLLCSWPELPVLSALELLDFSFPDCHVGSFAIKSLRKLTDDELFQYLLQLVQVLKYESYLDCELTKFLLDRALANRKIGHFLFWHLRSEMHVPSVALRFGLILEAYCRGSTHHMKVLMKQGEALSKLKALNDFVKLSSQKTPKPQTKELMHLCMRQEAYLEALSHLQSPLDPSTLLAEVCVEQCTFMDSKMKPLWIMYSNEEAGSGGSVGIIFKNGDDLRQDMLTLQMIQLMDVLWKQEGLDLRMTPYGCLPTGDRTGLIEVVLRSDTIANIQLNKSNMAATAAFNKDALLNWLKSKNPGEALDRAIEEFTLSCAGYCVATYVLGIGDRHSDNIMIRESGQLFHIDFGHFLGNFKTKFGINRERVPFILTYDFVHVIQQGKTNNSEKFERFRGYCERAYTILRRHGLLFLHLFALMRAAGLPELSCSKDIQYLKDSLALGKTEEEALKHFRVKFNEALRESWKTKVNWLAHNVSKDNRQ
T1 sequence (P27986 whole entry partner, canonical isoform): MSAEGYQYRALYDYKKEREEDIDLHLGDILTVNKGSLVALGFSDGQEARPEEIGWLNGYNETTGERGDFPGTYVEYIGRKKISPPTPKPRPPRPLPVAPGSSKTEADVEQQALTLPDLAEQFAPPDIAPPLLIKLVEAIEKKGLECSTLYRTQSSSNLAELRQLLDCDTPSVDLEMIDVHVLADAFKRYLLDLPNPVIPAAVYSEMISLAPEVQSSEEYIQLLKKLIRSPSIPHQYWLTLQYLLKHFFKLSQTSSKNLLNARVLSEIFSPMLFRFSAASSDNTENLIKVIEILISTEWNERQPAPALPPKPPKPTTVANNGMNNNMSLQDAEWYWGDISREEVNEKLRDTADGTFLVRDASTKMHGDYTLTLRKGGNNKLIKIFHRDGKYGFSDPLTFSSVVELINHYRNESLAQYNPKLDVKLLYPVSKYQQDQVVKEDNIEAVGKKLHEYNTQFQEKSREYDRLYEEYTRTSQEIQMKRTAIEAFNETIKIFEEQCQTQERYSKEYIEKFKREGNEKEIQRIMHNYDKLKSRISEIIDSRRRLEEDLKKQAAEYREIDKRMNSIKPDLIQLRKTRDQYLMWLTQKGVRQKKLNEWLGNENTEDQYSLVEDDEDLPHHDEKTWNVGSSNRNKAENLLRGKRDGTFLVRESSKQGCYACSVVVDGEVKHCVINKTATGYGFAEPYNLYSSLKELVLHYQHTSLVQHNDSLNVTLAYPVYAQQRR

Compound | half-life at 2 μM [1] | IC50 (PI3Kδ; [3]) | EC50 (basophils; [4]) | half-life at 1 μM [2, 5] | EC50 (basophils; basophils activated with anti-FcεRI mAb or fMLP, geometric mean) | half-life at 1 μM ([2]; human hepatocytes, read-out: t1/2^b) | EC50 (basophils; Homo sapiens, basophil activation) | IC50 (PI3Kδ)
Cc1ccc(F)c2c(=O)n(-c3cccc(C#N)c3)c(C(C)Nc3nc(N)nc(N)c3C#N)nc12 (single isomer, unassigned) [Compound 82a] | 6 to 10 h | 10 to 50 nM | > 50 nM |  |  |  |  | 
CCC(Nc1nc(N)nc(N)c1C#N)c1nc2c(Cl)ccc(F)c2c(=O)n1-c1cc(F)cc(F)c1 (single isomer, unassigned) [Compound 102a] | 6 to 10 h | 10 to 50 nM | 1 to 10 nM |  |  |  |  | 
CC(Nc1nc(N)nc(N)c1Cl)c1nc2cccc(Cl)c2c(=O)n1-c1ccccc1 (single isomer, unassigned) [Compound 104a] | 3 to 6 h |  | 1 to 10 nM |  |  |  |  | < 1 nM
CC(Nc1nc(N)nc(N)c1C#N)c1nc2cccc(S(C)(=O)=O)c2c(=O)n1-c1cc(F)cc(C(F)F)c1 (single isomer, unassigned) [Compound 98a] |  | 10 to 50 nM | > 50 nM | 3 to 6 h |  |  |  | 
CCC(Nc1nc(N)nc(N)c1C#N)c1nc2ccc(F)cc2c(=O)n1-c1cc(F)cc(F)c1 (single isomer, unassigned) [Compound 26a] |  | 10 to 50 nM | 1 to 10 nM | > 10 h |  |  |  | 
CC(Nc1nc(N)nc(N)c1C#N)c1nc2ccc(F)c(Cl)c2c(=O)n1-c1cccc(C#N)c1 (single isomer, unassigned) [Compound 176a] |  | 10 to 50 nM | 1 to 10 nM | > 10 h |  |  |  | 
CCC(Nc1nc(N)nc(N)c1C#N)c1nc2c(F)ccc(F)c2c(=O)n1-c1cccc(F)c1 (single isomer, unassigned) [Compound 151a] |  | 1 to 10 nM | 1 to 10 nM | 3 to 6 h |  |  |  | 
CC(Nc1nc(N)nc(N)c1C#N)c1nc2ccccc2c(=O)n1-c1cc(F)cc(F)c1 (single isomer, unassigned) [Compound 28a] |  | 10 to 50 nM | 1 to 10 nM | > 10 h |  |  |  | 
CC(Nc1nc(N)nc(N)c1C#N)c1nc2c(F)ccc(F)c2c(=O)n1-c1cccc(C#N)c1 (single isomer, unassigned) [Compound 149a] |  | 10 to 50 nM | 1 to 10 nM | 6 to 10 h |  |  |  | 
CC(Nc1nc(N)nc(N)c1C#N)c1nc2c(C(F)F)cccc2c(=O)n1-c1ccccc1 (single isomer, unassigned) [Compound 56a] |  | 10 to 50 nM | 1 to 10 nM | 6 to 10 h |  |  |  | 
CC(Nc1nc(N)nc(N)c1C#N)c1nc2ccc(F)c(Cl)c2c(=O)n1-c1cc(F)cc(F)c1 (single isomer, unassigned) [Compound 140a] |  | 1 to 10 nM | 1 to 10 nM | 3 to 6 h |  |  |  | 
CC(Nc1nc(N)nc(N)c1C#N)c1nc2cccc(Cl)c2c(=O)n1-c1cccc(C#N)c1 (single isomer, unassigned) [Compound 12a] |  | 1 to 10 nM | 1 to 10 nM | > 10 h |  |  |  | 
CC(Nc1nc(N)nc(N)c1C#N)c1nc2c(C#N)cccc2c(=O)n1-c1cccc(C(F)F)c1 (single isomer, unassigned) [Compound 160a] |  | 1 to 10 nM | 1 to 10 nM | 3 to 6 h |  |  |  | 
CCCC(Nc1nc(N)nc(N)c1C#N)c1nc2cccc(F)c2c(=O)n1-c1cc(F)cc(F)c1 (single isomer, unassigned) [Compound 175a] |  | 1 to 10 nM | 1 to 10 nM | 6 to 10 h |  |  |  | 
CCC(Nc1nc(N)nc(N)c1C#N)c1nc2c(F)ccc(F)c2c(=O)n1-c1cccc(C#N)c1 (single isomer, unassigned) [Compound 152a] |  | 10 to 50 nM | 1 to 10 nM | 3 to 6 h |  |  |  | 
C[C@H](Nc1nc(N)nc(N)c1C#N)c1nc2c(C#N)cc(F)cc2c(=O)n1-c1cccc(F)c1 [Compound 154a, (S)-2-(1-((2,6-diamino-5-cyanopyrimidin-4-yl)amino)ethyl)-6-fluoro-3-(3-fluorophenyl)-4-oxo-3,4-dihydroquinazoline-8-carbonitrile] |  | 1 to 10 nM | 1 to 10 nM | > 10 h |  |  |  | 
CC(Nc1nc(N)nc(N)c1C#N)c1nc2cccc(Cl)c2c(=O)n1-c1cc(F)cc(OC(F)(F)F)c1 (single isomer, unassigned) [Compound 193a] |  | 1 to 10 nM | 1 to 10 nM | 1 to 3 h |  |  |  | 
CC(Nc1nc(N)nc(N)c1C#N)c1nc2cccc(C(N)=O)c2c(=O)n1-c1cc(F)cc(F)c1 (single isomer, unassigned) [Compound 91a] |  | 10 to 50 nM | 10 to 50 nM | > 10 h |  |  |  | 
CC(Nc1nc(N)nc(N)c1C#N)c1nc2ccc(F)cc2c(=O)n1-c1cccc(C#N)c1 (single isomer, unassigned) [Compound 13a] |  | 10 to 50 nM | 1 to 10 nM | > 10 h |  |  |  | 
CC(Nc1nc(N)nc(N)c1Cl)c1nc2c(F)ccc(Cl)c2c(=O)n1-c1ccccc1 (single isomer, unassigned) [Compound 127a] |  | 1 to 10 nM | 1 to 10 nM | 1 to 3 h |  |  |  | 

More lines, main results first:

half-life at 2 μM [1] | IC50 (PI3Kδ; [3]) | EC50 (basophils; [4]) | half-life at 1 μM [2, 5] | EC50 (basophils; basophils activated with anti-FcεRI mAb or fMLP, geometric mean) | half-life at 1 μM ([2]; human hepatocytes, read-out: t1/2^b) | EC50 (basophils; Homo sapiens, basophil activation) | Compound | IC50 (PI3Kδ)
3 to 6 h | 1 to 10 nM | 1 to 10 nM |  |  |  |  | COc1cc(OC)cc(-n2c(C(C)Nc3nc(N)nc(N)c3C#N)nc3cccc(Cl)c3c2=O)c1 (single isomer, unassigned) [Compound 51a] | 
6 to 10 h | 1 to 10 nM | 1 to 10 nM |  |  |  |  | CC(Nc1nc(N)nc(N)c1C#N)c1nc2cccc(F)c2c(=O)n1-c1cccc(C(F)(F)F)c1 (single isomer, unassigned) [Compound 40a] | 
 | 1 to 10 nM | 10 to 50 nM | 1 to 3 h |  |  |  | COc1cc(C(F)F)cc(-n2c(C(C)Nc3nc(N)nc(N)c3C#N)nc3cccc(Cl)c3c2=O)c1 (single isomer, unassigned) [Compound 190a] | 
 | 1 to 10 nM | < 1 nM | 6 to 10 h |  |  |  | CC(Nc1nc(N)nc(N)c1C#N)c1nc2c(F)ccc(Cl)c2c(=O)n1-c1cccc(C#N)c1 (single isomer, unassigned) [Compound 181a] | 
 | < 1 nM | < 1 nM | 1 to 3 h |  |  |  | COc1cccc(-n2c(C(C)Nc3nc(N)nc(N)c3C#N)nc3cccc(Cl)c3c2=O)c1 (single isomer, unassigned) [Compound 185a] | 
 | 1 to 10 nM | 1 to 10 nM | > 10 h |  |  |  | CCC(Nc1nc(N)nc(N)c1C#N)c1nc2ccc(F)cc2c(=O)n1-c1cccc(F)c1 (single isomer, unassigned) [Compound 178a] | 
 | 1 to 10 nM | 10 to 50 nM | > 10 h |  |  |  | CC(Nc1nc(N)nc(N)c1C#N)c1nc2c(C#N)cc(F)cc2c(=O)n1-c1ccccc1 (single isomer, unassigned) [Compound 155a] | 
 | < 1 nM | 10 to 50 nM | 6 to 10 h |  |  |  | CC(Nc1nc(N)nc(N)c1C(N)=O)c1nc2cccc(Cl)c2c(=O)n1-c1ccccc1 (single isomer, unassigned) [Compound 183a] | 
 | 1 to 10 nM | 1 to 10 nM | > 10 h |  |  |  | CC(Nc1nc(N)nc(N)c1C#N)c1nc2cccc(C(F)F)c2c(=O)n1-c1cccc(C#N)c1 (single isomer, unassigned) [Compound 63a] | 
 | < 1 nM |  | 1 to 3 h | < 1 nM |  |  | Cc1ccc(C(F)F)cc1-n1c(C(C)Nc2nc(N)nc(N)c2C#N)nc2cccc(Cl)c2c1=O (single isomer, unassigned) [Compound 188a-2] | 
 | 1 to 10 nM | 1 to 10 nM | > 10 h |  |  |  | CC(Nc1nc(N)nc(N)c1C#N)c1nc2c(Cl)cccc2c(=O)n1-c1ccccc1 (single isomer, unassigned) [Compound 22a] | 
 | 1 to 10 nM | 1 to 10 nM | > 10 h |  |  |  | CC(Nc1nc(N)nc(N)c1C#N)c1nc2cccc(C#N)c2c(=O)n1-c1cc(F)cc(F)c1 (single isomer, unassigned) [Compound 112a] | 
 | 1 to 10 nM | 1 to 10 nM | > 10 h |  | > 20 h | < 2 nM | CC(Nc1nc(N)nc(N)c1C#N)c1nc2cccc(F)c2c(=O)n1-c1cccc(F)c1 (single isomer, unassigned) [Compound 182a] | 
 | 1 to 10 nM | 1 to 10 nM | 3 to 6 h |  |  |  | CCC(Nc1nc(N)nc(N)c1C#N)c1nc2c(F)ccc(F)c2c(=O)n1-c1ccccc1 (single isomer, unassigned) [Compound 150a] | 
 | 1 to 10 nM | 1 to 10 nM | 6 to 10 h |  |  |  | CCC(Nc1nc(N)nc(N)c1C#N)c1nc2cccc(F)c2c(=O)n1-c1cccc(F)c1 (single isomer, unassigned) [Compound 179a] | 
 | < 1 nM | 1 to 10 nM | 3 to 6 h |  |  |  | CC(Nc1nc(N)nc(N)c1C#N)c1nc2cccc(Cl)c2c(=O)n1-c1cccc(Cl)c1 (single isomer, unassigned) [Compound 8a] | 
